Measured values reported in patent US12390467B2, “Necroptosis inducers or autophagy inhibitors or a combination thereof” (The University of Toledo, priority 2018, dated 2025).

Legend:
Assay type in all cases: cell-based
[1] = tested on: Bak, Bax, Bcl-2, caspases, PARP, cytochrome c in BT-20 cells; test: Western blot, apoptotic proteins
Method: (§1) The TNBC cells were seeded in a culture flask and incubated for 24 h. The cells were then incubated with different concentrations of the lead compounds and re-incubated for an additional 12 or 24 h. […] The bicinchoninic acid (BCA) was used to determine protein concentration in the cell extracts (G-BIOSCIENCES, St. Louis, MO, USA). […] The membrane was blocked using 5% milk in Tris-buffered Tween 20 saline for 30 minutes. The membrane was then incubated overnight with primary antibodies against Bak, Bax, Bcl-2, caspase9, caspase 3, caspase 7, PARP, cytochrome c, N-cadherin, E-cadherin, c-Myc, dishevelled segment polarity protein 3 (DVL3), dishevelled segment polarity protein 2 (DVL2), Vimentin, mitogen-activated protein kinase kinase (MAPKK also known as MEK1/2), β-catenin, low-density lipoprotein receptor-related protein 6 (LRP6), receptor-interacting protein kinase (RIP), phosphorylated RIP (p-RIP), mixed lineage kinase domain like pseudokinase(MLKL), Caspase 8, light chain 3 (LC3), lysosomal-associated membrane protein 1 (LAMP1), unc-51 like autophagy activating kinase 1 (ULK1), ras associated protein 7 (Rab7), ras associated protein 5 (Rab5), Beclin 1, mechanistic target of rapamycin (mTOR), tumor necrosis factor alpha (TNF-α), tumor necrosis factor receptor 1 (TNFR1), tumor necrosis factor receptor 2 (TNFR2), Fas-associated protein with death domain (FADD), Fas ligand (Fas), TNF-related apoptosis-inducing ligand (TRAIL), death receptor 5 (DR5), Tumor necrosis factor receptor type 1-associated DEATH domain (TRADD), receptor-interacting protein kinase 3 (RIP3), β-actin or GAPDH in 1:1000 dilution in 5% milk or 5% BSA at 4° C. Horseradish peroxidase-labeled (HRP) anti-rabbit or anti-mouse secondary antibodies (1:5,000 dilution) were added and incubated the next day for an additional 1 h. A ChemiDoc™ MP System imaging system from Bio-Rad (Hercules, CA, USA) was used for blots reading. Blots were used to obtain the protein bands, followed by quantification of the bands using image J software (NIH, Bethesda, MD, USA). All of the data were expressed as the ratio of β-actin or GAPDH.

[2] = tested on: ABCG2 transporter in H460/MX20, S1M180 and HEK293/R2 cells; test: Western blot, ABCG2 transporter expression; conditions: concentration dependent
Excerpt: FIG. 25: TPH104 reverses multidrug resistance by downregulating the expression of ABCG2 transporter in a concentration dependent fashion in drug resistant small cell lung cancer cells (H460/MX20), colon cancer cells (S1M180) and ABCG2-transfected cells (HEK293/R2). The bar graph represents the quantified values of the ratio of ABCG2/β-actin. The data represent mean±SEM of three independent western blots. *p<0.05, **p<0.01 compared to control.

[3] = target: T1, ABCG2 transporter (S1M180 cells) (Homo sapiens, UniProt Q9UNQ0, R482G); test: Intracellular accumulation of rhodamine 123; conditions: 0.05-1 μM
T1 construct: intracellular accumulation of rhodamine 123 in ABCG2 overexpressing S1M180 cells; endogenous in cells; host or cells: S1M180 colon cancer cells
T1 sequence (Q9UNQ0 whole entry R482G, one chain of several): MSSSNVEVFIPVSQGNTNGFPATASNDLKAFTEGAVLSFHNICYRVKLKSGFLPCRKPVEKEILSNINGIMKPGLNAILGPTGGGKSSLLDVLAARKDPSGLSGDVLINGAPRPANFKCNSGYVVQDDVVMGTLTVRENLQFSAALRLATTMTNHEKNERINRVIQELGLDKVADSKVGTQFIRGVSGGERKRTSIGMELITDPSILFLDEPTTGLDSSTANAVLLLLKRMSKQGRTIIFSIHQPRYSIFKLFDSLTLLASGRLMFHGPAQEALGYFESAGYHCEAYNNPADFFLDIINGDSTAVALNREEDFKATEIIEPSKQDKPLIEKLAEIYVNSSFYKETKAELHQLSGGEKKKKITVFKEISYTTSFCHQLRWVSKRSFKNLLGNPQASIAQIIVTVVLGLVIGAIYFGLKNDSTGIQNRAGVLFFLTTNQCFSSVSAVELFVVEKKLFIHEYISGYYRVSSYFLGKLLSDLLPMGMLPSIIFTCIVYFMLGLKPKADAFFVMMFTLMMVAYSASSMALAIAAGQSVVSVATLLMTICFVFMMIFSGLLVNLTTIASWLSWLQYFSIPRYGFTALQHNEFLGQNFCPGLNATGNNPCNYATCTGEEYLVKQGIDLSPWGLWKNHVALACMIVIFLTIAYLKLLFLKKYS
Method: FIG. 26: TPH104 reverses multidrug resistance by blocking the function of ABCG2 transporter. The effect of TPH104 and nilotinib on the intracellular accumulation of rhodamine 123 in ABCG2 overexpressing S1M180 cells. The top image is a graph showing the concentration-dependent increase in the accumulation of rhodamine 123 in S1M180 cells incubated with TPH104. Red filled=control; sky blue filled=0.05 μM; brown filled=0.1 μM; dark blue filled=0.3 μM; lime green filled=1 μM of TPH104, respectively, and olive green=nilotinib, 5 μM. The bottom image is a bar graph representing the relative rhodamine 123 accumulation levels. The data shown as means±SEM of three independent experiments. *p<0.05; ***p<0.001 compared to the control.

MDA-MB468 and MDA-MB231 = test: Cell cycle analysis (PI, flow cytometry); conditions: 0.5, 1, 2 μM, 12 h
Method: The cell cycle analysis was performed to evaluate the effect of TPH104 on the normal cell cycle in the TNBC cell lines (i.e. MDA-MB 468, MDA-MB231 and BT-20). Cells were plated in a 6-well plate at a suitable density as previously described and incubated overnight to allow for cell attachment. The following day, cells were incubated with different TPH104 concentrations (0.5, 1, or 2 μM) or vehicle for 12 h. The cells were harvested by trypsinization and collected in individual test tubes. Subsequently, cells were washed 3× with ice cold PBS and fixed with 70% ethanol for 30 minutes. Following fixation, cells were again washed 3× with intermittent centrifugation at 2000 rpm for 5 minutes and incubated with 100 μl RNAse (from a 100 μg/ml stock) (to ensure that only DNA was stained). Two hundred μl of PI (from a 50 μg/ml stock solution) was added to each test tube and cells were stain cells for at least 15 minutes on ice. Finally, a FACS Calibur flow cytometer (BD Biosciences, San Jose, CA) was used to detect the distribution of the cells following incubation with vehicle or TPH104. FlowJo v10.2 software from FlowJo LLC (Ashland, OR) was used for data analysis.

β-catenin in MDA-MB468 = test: Western blot, β-catenin, MDA-MB468
Method: The TNBC cells were seeded in a culture flask and incubated for 24 h. The cells were then incubated with different concentrations of the lead compounds and re-incubated for an additional 12 or 24 h. […] The bicinchoninic acid (BCA) was used to determine protein concentration in the cell extracts (G-BIOSCIENCES, St. Louis, MO, USA). […] The membrane was blocked using 5% milk in Tris-buffered Tween 20 saline for 30 minutes. […] A ChemiDoc™ MP System imaging system from Bio-Rad (Hercules, CA, USA) was used for blots reading. Blots were used to obtain the protein bands, followed by quantification of the bands using image J software (NIH, Bethesda, MD, USA). All of the data were expressed as the ratio of β-actin or GAPDH.

[4] = tested on: TRAIL, DR5, TRADD, RIP3, TNF-α, TNFR1, FADD, Fas in BT-20 TNBC cells; test: Western blot, TRAIL and TNF pathway proteins
Method: as §1, with “Horseradish peroxidase-labeled (HRP) anti-rabbit or anti-mouse secondary antibodies (1:5,000 dilution) were added and incubated the next day for an additional 1 h.” left out

Structure (SMILES): COc1ccc(O)c(/C=N/Nc2ncnc3scc(-c4ccc(C)cc4)c23)c1 [TPH104]
- expression levels of caspase 3 and cleaved caspase 3 ([1]; 2 μM or 5 μM): significantly decreased
- expression levels of caspase 7 and caspase 9 ([1]; 0.5, 1, 2, and 5 μM): did not significantly alter
- expression of Bcl2 ([1]; 0.5, 1, 2, and 5 μM): increased
- expression of Bak ([1]; 0.5, 1, 2, and 5 μM, BT-20 and MDA-MB468): not significantly altered
- PARP cleavage ([1]; 1, 2, and 5 μM): significantly cleaved
- expression of cytochrome c ([1]; 1, 2, and 5 μM): significantly decreased
- expression of Bax ([1]; 1, 2, and 5 μM, BT-20 and MDA-MB468): significantly decreased
- expression of ABCG2 transporter [2]: downregulated
- intracellular accumulation of rhodamine 123 [3]: increased
- level of cells arrested in the S phase (MDA-MB468 and MDA-MB231): significantly increased
- number of cells in the G1 phase (MDA-MB468 and MDA-MB231): significant reduction
- expression of β-catenin (β-catenin in MDA-MB468): significantly decreased
- TNF-α ([4]; 0.5, 1, 2, and 5 μM): no significant change
- expression of TNFR1, FADD, and Fas ([4]; 0.5, 1, 2, and 5 μM): significantly inhibited
- TRAIL, its receptor (DRS), RIP3, and TRADD ([4]; 0.5, 1, 2, or 5 μM): significant increase
